Assay results taken from patent US9090658B2, “Base-substituted benzylamine analogs for use as coagulation factor Xa inhibitors, the production and use thereof” (The Medicines Company (Leipzig) GmbH, priority 2003, dated 2015).
Where a name gives a salt, the structure may show the parent alone.

How the values were obtained:
Thrombin = Thrombin (UniProt P00735); assay: Determination of the inhibitory constants for thrombin (method of Stürzebecher et al. 1997); assay type: biochemical
Excerpt: The Ki values are the average of at least three determinations.

factor Xa = target: T1, factor Xa (Bos taurus, UniProt P00743); assay: Determination of the inhibitory constants for factor Xa (chromogenic substrate Moc-D-Nle-Gly-Arg-pNA, Dixon method); assay type: biochemical, bovine; conditions: for Ki: bovine factor Xa, 25° C., pH 8.0, average of at least three determinations
T1 construct: purchased Diagnostic Reagents Ltd, Thame, GB
Procedure: Determination of the inhibitory Effect
To determine the inhibitory effect, 200 μl of this buffer (0.05 M 0.154 M NaCl, 5% Ethanol, pH 8.0; contains the inhibitor), 25 μl of substrate (Moc-D-Nle-Gly-Arg-pNA in H2O; Pentapharm Ltd., Basle, Switzerland) and 50 μl of factor Xa (bovine, Diagnostic Reagents Ltd, thame, GB) were incubated at 25° C. After 3 min, the reaction was stopped By adding 25 μl of acetic acid (50%), and the absorption at 405 nm was determined using a Microplate Reader (MR 5000, Dynatech, Denkendorf, Germany). The Ki values were Founder by the Dixon method (boichem. J. 55, 170-171, 1953) by linear regression using a Computer program. The Ki values are the average of at least three determinations. The Thrombin inhibitions was determined in analogy to a method described earlier (Stürzebecher et al., J. Med. Chem. 40, 3091-3099, 1997).

T1 sequence (P00743 234-492 limits assumed): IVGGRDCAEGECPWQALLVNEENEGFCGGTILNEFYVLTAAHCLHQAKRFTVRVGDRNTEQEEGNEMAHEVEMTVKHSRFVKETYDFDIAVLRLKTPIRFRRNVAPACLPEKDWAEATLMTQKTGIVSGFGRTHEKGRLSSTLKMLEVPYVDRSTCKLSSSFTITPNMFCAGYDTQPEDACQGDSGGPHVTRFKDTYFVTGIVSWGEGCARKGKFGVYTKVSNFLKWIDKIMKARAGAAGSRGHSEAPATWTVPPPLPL
T1 sequence (P00743 41-180 partner limits assumed): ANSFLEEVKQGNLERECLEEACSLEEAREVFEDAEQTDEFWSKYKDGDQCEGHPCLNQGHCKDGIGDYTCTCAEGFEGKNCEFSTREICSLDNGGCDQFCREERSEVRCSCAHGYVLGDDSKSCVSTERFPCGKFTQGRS

Row | SMILES | Ki (Thrombin) [nM] | selectivity ratio SR (SR = Ki thrombin/Ki factor Xa) (factor Xa) | Ki (factor Xa) [nM]
1 | N=C(N)c1ccc(CNC(=O)CNC(=O)[C@@H](CCc2ccccc2)NS(=O)(=O)Cc2ccccn2)cc1 [Compound 8, 2-PMs-d-homoPhe-Gly-4Amba×2 TFA] | 4900 | 96 | 51
2 | N=C(N)c1ccc(CNC(=O)CNC(=O)[C@@H](Cc2ccccc2)NS(=O)(=O)Cc2ccccc2)cc1 [Compound 10] | 68 | 2.6 | 26
3 | CS(=O)(=O)N[C@H](CCc1ccccc1)C(=O)NCC(=O)NCc1ccc(C(=N)N)cc1 [Compound 13] | 1300 | 1.2 | 1100
4 | COC(=O)Cc1ccc(CS(=O)(=O)N[C@H](CCc2ccccc2)C(=O)NCC(=O)NCc2ccc(C(=N)N)cc2)cc1 [Compound 16] | 1800 | 47 | 38
5 | N=C(N)c1ccc(CNC(=O)CNC(=O)[C@@H](CCc2ccccc2)NS(=O)(=O)Cc2ccc(CC(=O)O)cc2)cc1 [Compound 17] | 14000 | 259 | 54
6 | N=C(N)c1ccc(CNC(=O)CNC(=O)[C@@H](CCc2ccccc2)NS(=O)(=O)NC2CCCCC2)cc1.O=C(O)C(F)(F)F [Compound 18] | 5400 | 49 | 110
7 | N=C(N)c1ccc(CNC(=O)CNC(=O)[C@@H](CCc2ccccc2)NS(=O)(=O)Cc2ccccc2N)cc1 [Compound 19] | 920 | 137 | 6.7
8 | N=C(N)c1ccc(CNC(=O)CNC(=O)[C@@H](CCc2ccccc2)NS(=O)(=O)Cc2ccccc2[N+](=O)[O-])cc1 [Compound 20] | 1200 | 46 | 26
9 | N=C(N)c1ccc(CNC(=O)CNC(=O)[C@H](NS(=O)(=O)Cc2ccccc2)C2Cc3ccccc3C2)cc1 [Compound 21] | 150 | 5.2 | 29
10 | N=C(N)c1ccc(CNC(=O)CNC(=O)[C@@H](CNc2ccncc2)NS(=O)(=O)Cc2ccccc2)cc1 [Compound 23] | 2800 | 127 | 22
11 | N=C(N)c1ccc(CNC(=O)CNC(=O)C(CCc2ccccn2)NS(=O)(=O)Cc2ccccc2)cc1 (stereo not shown) [Compound 25] | 2000 | 952 | 2.1
12 | N=C(N)c1ccc(CNC(=O)CNC(=O)[C@@H](CCc2ccc(O)cc2)NS(=O)(=O)Cc2ccc(N)cc2)cc1 [Compound 27] | 560 | 295 | 1.9
13 | N=C(N)c1ccc(CNC(=O)CNC(=O)[C@@H](CCc2ccccc2)NS(=O)(=O)Cc2ccc(N)cc2)cc1 [Compound 29] | 260 | 100 | 2.6

Results, then the molecule that gave them:

Row | Ki (Thrombin) [nM] | selectivity ratio SR (SR = Ki thrombin/Ki factor Xa) (factor Xa) | Ki (factor Xa) [nM] | SMILES
14 | 2000 | 690 | 2.9 | N=C(N)c1ccc(CNC(=O)CNC(=O)C(CCc2ccncc2)NS(=O)(=O)Cc2ccccc2)cc1 (racemic) [Compound 1, Bzls-D,L-homoAla(4-Pyr)-Gly-4Amba×2 TFA]
15 | 3200 | 246 | 13 | N=C(N)c1ccc(CNC(=O)CNC(=O)C(CCc2ccncc2)NS(=O)(=O)Cc2ccncc2)cc1 (racemic) [Compound 2, 4-PMs-D,L-homoAla(4-Pyr)-Gly-4Amba×3 Acetate]
16 | 910 | 97 | 9.4 | N=C(N)c1ccc(CNC(=O)[C@H](CO)NC(=O)[C@@H](CCc2ccncc2)NS(=O)(=O)Cc2ccccc2)cc1 [Compound 3a, Bzls-D,L-homoAla(4-Pyr)-Ser-4Amba×2 TFA]
17 | 4600 | 48.4 | 95 | N=C(N)c1ccc(CNC(=O)[C@H](CO)NC(=O)[C@H](CCc2ccncc2)NS(=O)(=O)Cc2ccccc2)cc1 [Compound 3b, Bzls-D,L-homoAla(4-Pyr)-Ser-4Amba×2 TFA]
18 | 6300 | 65 | 97 | N=C(N)c1ccc(CNC(=O)[C@H](CO)NC(=O)C(CCc2ccncc2)NS(=O)(=O)Cc2ccncc2)cc1 (stereo partly drawn) [Compound 4, 4-PMs-D,L-homoAla(4-Pyr)-Ser-4Amba×3 acetate]
19 | 1500 | 556 | 2.7 | N=C(N)c1ccc(CNC(=O)CNC(=O)[C@@H](CCc2ccc(O)cc2)NS(=O)(=O)Cc2ccccc2)cc1 [Compound 5, Bzls-d-homoTyr-Gly-4Amba×TFA]
20 | 1400 | 74 | 19 | N=C(N)c1ccc(CNC(=O)[C@H](CO)NC(=O)[C@@H](CCc2ccc(O)cc2)NS(=O)(=O)Cc2ccccc2)cc1 [Compound 6, Bzls-d-homoTyr-Ser-4Amba×TFA]
21 | 3300 | 7.2 | 460 | N=C(N)c1ccc(CNC(=O)[C@H](CO)NC(=O)[C@@H](CCc2ccccc2)NS(=O)(=O)Cc2ccncc2)cc1 [Compound 7, 4-PMs-dhomoPhe-Gly-4Amba×2 TFA]
22 | 5900 | 95 | 62 | N=C(N)c1ccc(CNC(=O)CNC(=O)[C@@H](CCc2ccccc2)NS(=O)(=O)Cc2cccnc2)cc1 [Compound 9, 3-PMs-dhomoPhe-Gly-4Amba×2 TFA]
23 | 47 | 7.2 | 6.5 | N=C(N)c1ccc(CNC(=O)CNC(=O)[C@@H](CCc2ccccc2)NS(=O)(=O)Cc2ccccc2)cc1 [Compound 11]
24 | 11000 | 31 | 360 | N=C(N)c1ccc(CNC(=O)CNC(=O)[C@H](CCc2ccccc2)NS(=O)(=O)Cc2ccccc2)cc1 [Compound 12]
25 | 3600 | 45 | 80 | N=C(N)c1ccc(CNC(=O)CNC(=O)[C@@H](CCc2ccccc2)NS(=O)(=O)Cc2ccncc2)cc1 [Compound 14]
26 | 600 | 15 | 40 | N=C(N)c1ccc(CNC(=O)[C@H](CO)NC(=O)[C@@H](CCc2ccccc2)NS(=O)(=O)Cc2ccccc2)cc1 [Compound 15]
27 | 700 | 259 | 2.7 | N=C(N)c1ccc(CNC(=O)CNC(=O)[C@@H](CCc2ccncc2)NS(=O)(=O)Cc2ccccc2)cc1 [Compound 22]
28 | 2000 | 400 | 5 | N=C(N)c1ccc(CNC(=O)CNC(=O)C(CCc2cccnc2)NS(=O)(=O)Cc2ccccc2)cc1 (stereo not shown) [Compound 24]
29 | 25000 | 14705 | 1.7 | N=C(N)c1ccc(CNC(=O)[C@H](CCC(=O)O)NC(=O)[C@@H](CCc2ccncc2)NS(=O)(=O)Cc2ccc(N)cc2)cc1 [Compound 26]
30 | 1000 | 454 | 2.2 | N=C(N)c1ccc(CNC(=O)CNC(=O)C(CCc2ccncc2)NS(=O)(=O)Cc2ccc(N)cc2)cc1 (stereo not shown) [Compound 28]
31 | – | – | 10 | N=C(N)c1ccc(CNC(=O)CNC(=O)C(CCc2ccncc2)NS(=O)(=O)Cc2ccc(C(=O)O)cc2)cc1 (stereo not shown) [Compound 48]
